Data from patent US20150224164A1, “TREATMENT OF AUTISM SPECTRUM DISORDERS USING GLYCYL-L-2-METHYLPROLYL-L-GLUMATIC ACID” (Neuren Pharmaceuticals Limited, priority 2013, published 2015).
Where a SMILES comes first, the peptide text is derived from it.

What was measured:
[1] = test system: heterozygous Shank3-deficient mice; assay: Social interaction and ultrasonic vocalization, Shank3-deficient mice (Example 13); format: in vivo, mouse; conditions: 15 or 60 mg/kg oral b.i.d. 14 days; vs placebo
Experimental: 1 to 3 month old wild type and heterozygous Shank3-deficient mice are divided into 4 treatment groups: placebo treated wild-type, placebo treated Shank3-deficient group and two Shank3-deficient G-2-MePE treated groups. The animals are given placebo (water) or G-2-MePE formulated in water administered orally, b.i.d for 14 days. G-2-MePE is administered at two doses: 15 or 60 mg/kg.
Behavioral assessments are made at several time points, and include analysis of social interactions and ultrasonic social communication, in line with the methodology described by Bozdagi et al. Briefly, male-female social interactions in each treatment group are evaluated. The subject males are group-housed and individually tested in clean cages with clean litter. Each testing session lasts 5 min. […] Videos from the male subjects are subsequently scored by an investigator uninformed of the subject's genotype and treatment group on measures of nose-to-nose sniffing, nose-to-anogenital sniffing and sniffing of other body regions, using Noldus Observer software (Noldus Information Technology, Leesburg, Va., USA). Ultrasonic vocalizations are identified manually by two highly trained investigators blinded to genotype/treatment group information, and summary statistics are calculated using the Avisoft package. […] Data are analysed using an unpaired Student's t-test.

[2] = test system: ChAT-positive neurons in the striatum; assay: ChAT immunohistochemistry in striatum of aging rats; format: in vivo, rat; conditions: single s.c. dose 0.012-12 mg/kg; 18-month old rats; 3 days after treatment
Experimental: Eighteen-month old male rats received one of five treatments. A control group was treated with vehicle (saline alone (n=4) and four groups were treated with a single dose of G-2-MePE. […] Rats were sacrificed with an overdose of pentobarbital 3 days after drug treatment. Brains were perfused with normal saline and 4% paraformaldehyde and fixed in perfusion fixative overnight. Brains were stored in 25% sucrose in 0.1M PBS (pH7.4) until the tissue sank. Frozen coronal sections of striatum were cut with a microtome and stored in 0.1% sodium azide in 0.1M PBS at 4° C. Immunoreactivity for choline acetyltransferase (ChAT) was established by staining using a free floating section method. Briefly, antibodies were diluted in 1% goat serum. The sections were incubated in 0.2% triton in 0.1M PBS/Triton™ at 4° C. overnight before Immunohistochemical staining. The sections were pre-treated with 1% H2O2 in 50% methanol for 20 min. The sections were then incubated with rabbit (Rb) anti-ChAT (1:5000) antibodies (the primary antibodies) in 4D on a shaker for two days. The sections were washed using PBS/Triton™ (15 minutes×3d) and then incubated with goat anti-rabbit biotinylated secondary antibodies (1:1000) at room temperature overnight. […] The size of the striatal region used for the count was measured using an image analyser. […] Data were analysed using a paired t-test and presented as mean+/−SEM.

MeCP2-/y mice = assay: Life span (Example 10); format: in vivo, mouse; conditions: 20 mg/kg i.p. daily from P15; vs MeCP2 KO littermates
Experimental: For the survival measurements, the nocturnal activity analysis and the immunoblot analysis, G-2-MePE (synthesised Albany Molecular Research Inc. (Albany, N.Y.) and supplied by Neuren Pharmaceuticals Limited) is administered daily via intra-peritoneal injections (20 mg/kg, vehicle=saline, 0.01% BSA). The treatment starts at P15 and is maintained throughout the course of the experiments. For intracellular physiology experiments, the mice are injected daily with G-2-MePE (20 mg/kg body weight, vehicle=saline, 0.01% BSA) for 2 weeks, from P15 to P28-P32 when they are used for acute slice preparation. For optical imaging experiments, mice are injected with G-2-MePE (20 mg/kg body weight, vehicle=saline, 0.01% BSA) daily from the day of the lid suture to the day of imaging.

[3] = test system: Tbx1 heterozygous, Cntnap2 knockout, Slc9a6 knockout and fmr1 knockout mouse; assay: Genetic models of ASD: Tbx1, Cntnap2, Slc9a6, fmr1 mice (Example 17); format: in vivo; conditions: 20 mg/kg/day i.p.
Experimental: Animals in each of the above models are generated in accordance with the methodology described in the cited literature. Wild type equivalents are also obtained for each genetic model. Animals in each model are divided into three groups (n=10 to n=20): placebo treated wild type mice, mutant G-2-MePE-treated group and mutant placebo-treated control group. The treatments are administered intraperitoneally: placebo (saline) or 20 mg/kg/day of G-2-MePE.

[4] = test system: hippocampus slices from MeCP2 deficient mice; assay: Hippocampal long-term potentiation, fEPSP slope (Example 8); format: in vivo, mouse; conditions: 20 mg/kg/day i.p. week 4 to 9; vs saline
Excerpt: MeCP2 deficient mice have been previously reported to suffer from functional and ultrastructural synaptic dysfunction, significant impairment of hippocampus-dependent memory and hippocampal long-term potentiation (LTP) (Moretti et al. The Journal of Neuroscience. 2006. 26(1):319-327). To test the effects of the G-2-MePE treatment on synaptic function in the RTT model we compared hippocampal LTP in both vehicle and G-2-MePE treated animals at 9 weeks of age. To do so, we measured the slope of the fEPSP as a % of baseline potential in neurons in slices of hippocampus from MeCP2 deficient mice treated with either saline or G-2-MePE (FIG. 23).

central nervous system = conditions: after oral administration; cited from earlier work

C[C@@]1(C(=O)N[C@@H](CCC(=O)O)C(=O)O)CCCN1C(=O)CN [Example G-2-MePE, Glycyl-L-2-methylprolyl-L-glutamic acid] (HELM PEPTIDE1{G.[C[C@@]1(C(=O)[*:2])CCCN1[*:1]].E}$$$$V2.0)
cumulative duration of total social sniffing [1]: significant increase | number of ultrasonic vocalizations [1]: increased number of ultrasonic vocalizations | number of ChAT-immunopositive neurons [2]: increased | increase in life expectancy (0.5 probability survival rate) (MeCP2-/y mice): ~50% | measures associated with the ASD phenotype [3]: significantly improves all measures | slope of fEPSP (LTP) [4]: increased the slope | activity in the central nervous system (central nervous system): active in the central nervous system
